From US20250051727A1, “CARDIAC ORGANOID WITH INNER PART HAVING CAVITIES AND MULTIPLE LAYERS” (MEDIZINISCHE HOCHSCHULE HANNOVER, priority 2018, published 2025)

Test system: cardiac organoids (from hESC3 NKX2.5-eGFP)
Format: cell-based, human
Description: The process was performed for steps a) to n) as described with reference to FIG. 1. Incubation under cell culture conditions was in a 5% CO2 atmosphere at 37° C., using ultra-low attachment 96 well microtiter plates, Nunclon Sphera 96U-well plate available from Thermo Fisher Scientific, as the first vessels. The PSC were the human embryonic stem cell line hESC3 NKX2.5-eGFP. These exemplary PSC were genetically manipulated to express enhanced green fluorescent protein (eGFP) as a reporter under the control of the early cardiomyocyte-specific marker NKX2.5 to indicate early cardiomyocyte differentiation.
These PSC were cultivated on cell culture flasks (preferably Geltrex-coated) in E8 medium and detached from the flasks to provide the PSC in suspension. In step a), 5000 PSC suspended in 100 μL of the first medium, which was E8 medium (DMEM/F12, L-ascorbic acid-2-phosphate magnesium (64 mg/L), sodium selenium (14 μg/L), FGF2 (100 μg/L), insulin (19.4 mg/L), NaHCO3 (543 mg/L) and transferrin (10.7 mg/L), TGFβ1 (2 μg/L) or NODAL (100 μg/L), osmolarity adjusted to 340 mOsm at pH7.4) supplemented with 10 μM ROCK inhibitor (Y-27632, catalogue No. 72302, Stemcell Technologies)), were carefully dispensed into wells of the microtiter plate. Centrifugation of step b) was twice for 3 min at 300× g with the centrifuge cooled to 4° C. The centrifuged first vessels each contained one agglomerate on the U-shaped bottom and were carefully placed into a cell culture incubator in order to avoid disturbance of the cells localized at the U-shaped bottom. Incubation of step c) without agitation was for 24 h, resulting in the formation of an aggregate of the cells. For embedding in Matrigel (thawed on ice, 9.7 to 10.1 mg/mL protein content) as the exemplary hydrogel, 20 μL Matrigel were positioned in each well of a microtiter plate, the wells of which forming second vessels, which plate was of the same ultra-low attachment quality as the first. […]

## O=C1CCC(N2C(=O)c3ccccc3C2=O)C(=O)N1 (stereo not drawn) [Thalidomide]
  thickness of the myocardial ring compared to Controls (micrographs, FIG. 15): substantially thinner than in Controls
human, 80 μg/mL
  NKX2.5-eGFP-positive cells on the outer layer (micrographs, FIG. 15): absence of any NKX2.5-eGFP-positive cells on the outer layer
  average diameter of the myocardial ring: 165 μm
